The record followed here is ChEMBL document CHEMBL1201862, “PubChem BioAssay data set” (2004).

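1) Cells in 96-well plates. 2) Compound, 48 h, 5 concentrations. 3) Linear interpolation between surrounding doses. 4) Unreached endpoint = highest concentration. GI50 marks 50% less growth.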 Activity calls are given as the source filed them. No stated cut-off is given here; in the data, active = GI50 up to about 1.1 µM and inactive = higher. Some results are limits rather than exact numbers.

What all share (assay): inhibition of tumour cell growth, NCI panel, 48 h
Test [1] deals with SK-MEL-28.
The subject of test [2] is HT-29.
Test [3] has as its system KM12.
Test [4] deals with PC-3.
Test [5] concerns NCI/ADR-RES.
The test system of test [6] is MOLT-4.
For test [7], the system named is SF-295.
Test [8] relates to EKVX.
In test [9] the test system is OVCAR-3.
Test [10] deals with 786-0.
The subject of test [11] is M14.
Test [12] concerns U-251.
The subject of test [13] is SK-MEL-2.
The test system of test [14] is SN12C.
The test system of test [15] is COLO 205.
The test system of test [16] is SK-OV-3.
Test [17] has as its system MDA-N.
Test [18] deals with MDA-MB-435.
Test [19] concerns K562.
The subject of test [20] is IGROV-1.

On to `CN(Cc1cnc2nc(N)nc(N)c2n1)c1ccc(C(=O)NCS(=O)(=O)O)cc1`, for which the GI50 in [1] is > 100 µM (inactive); in test [2] it was > 100 µM (inactive); in test [3], 60.1 µM (inactive); in [4] it was 48.1 µM (inactive); in test [5], 34.3 µM (inactive); in test [6] it was 68.2 µM (inactive). In addition, the GI50 in test [7] was > 100 µM (inactive); in test [8] it was > 100 µM (inactive); in test [9] it was > 100 µM (inactive); in [10] it was 59.3 µM (inactive); in test [11], > 100 µM (inactive); in [12] it was > 100 µM (inactive). Besides, the GI50 was > 100 µM (inactive) in test [13]; > 100 µM (inactive) in test [14]; > 100 µM (inactive) in [15]; > 100 µM (inactive) in test [16]; 63.1 µM (inactive) in test [17]; 91.2 µM (inactive) in test [18]. In addition, the GI50 in test [19] and in test [20] was > 100 µM (inactive) each time.
With `COC1=CC(=O)c2c(ccc3ncnc(N)c23)C1=O`, the GI50 is 2.36 µM (inactive) in [1]; 2.1 µM (inactive) in test [2]; 4.41 µM (inactive) in test [3]; 2.32 µM (inactive) in test [4]; 2.31 µM (inactive) in test [5]; 0.573 µM (active) in test [6]. Further, the GI50 was 3.62 µM (inactive) in test [7]; 2.04 µM (inactive) in [8]; 1.48 µM (inactive) in [9]; 1.78 µM (inactive) in test [10]; 1.88 µM (inactive) in [11]; 1.74 µM (inactive) in test [12]. The GI50 in [13] is 3.03 µM (inactive); in [14] it was 1.87 µM (inactive); in test [15] it was 3.58 µM (inactive); in test [16], 6.28 µM (inactive); in [17], 0.288 µM (active); in test [18], 0.233 µM (active). The figures for the GI50 in [19] and in test [20] were 0.659 µM (active) and 1.73 µM (inactive), respectively.
Turning to `CC(C)n1c(=O)[nH]n(-c2ccccc2)c1=O`, the GI50 in [1], in test [2], in [3], in test [4], in [5] and in test [6] was > 100 µM (inactive) in each case. The GI50 in test [7], in [8], in test [9], in test [10], in test [11] and in test [12] was > 100 µM (inactive) each time. For the same compound, the GI50 in [13], in test [14], in [15], in [16], in test [17] and in test [18] was > 100 µM (inactive) each time. Besides, the GI50 in test [19] and in test [20] was > 100 µM (inactive) each time.
For `N=C(N)n1nc2c(c1O)CCCC2`, the GI50 in test [1], in test [2], in test [3], in test [4], in test [5] and in test [6] was > 100 µM (inactive) in each case. The GI50 in test [7], in test [8], in [9], in [10], in test [11] and in test [12] was > 100 µM (inactive) throughout. The GI50 in test [13], in test [14], in test [15], in test [16], in test [17] and in test [18] was > 100 µM (inactive) in each case. The GI50 in test [19] is > 100 µM (inactive); in test [20], 65.2 µM (inactive).
